Values of other authors, collected in patent US20130065959A1, “SANITIZING MEAT WITH PERACID AND 2-HYDROXY ORGANIC ACID COMPOSITIONS” (Fresh Express Incorporated, priority 2009, published 2013).

conditions: cited from earlier work

Row | SMILES | Oxidation Capacity [eV]
1 | [O][Cl+][O-] [Chlorine Dioxide] | 1.57
2 | O=[O+][O-] [Ozone] | 2.07
3 | OCl [Sodium hypochlorite (Chlorine bleach), Sodium hypochlorite] | 1.36
